Results taken from patent US20060151574A1, “Formulations useful against hepatitis C virus infections” (priority 2002, published 2006).

Tests used:
[1] = test system: nuclear receptors (RAR, RXR); experiment: Ability to act as ligands for nuclear receptors; type: binding
HCV replicon cell lines = experiment: HCV replicon cell lines: HCV RNA by Northern Blotting, NS5a by Western Blotting; type: cell-based, Hepatitis C virus
Description: The only reliable experimental animal HCV infection studies have been performed with chimpanzees. So far, there is no simple cell culture infection system available or HCV. Although a number of reports have been published describing in vitro propagation attempts of HCV in primary cells and cell lines, questions remain concerning reproducibility, low levels of expression and properly controlled detection methods (reviewed in J. Gen Virol. 81, 1631; Antiviral Chemistry and Chemotherapy 10, 99). Thus, the replicon system described by Bartenschlager and coworkers (Lohmann et al, Replication of subgenomic hepatitis C virus RNAs in a hepatoma cell line. Science 285, 110. 1999) was used for the studies disclosed herein. This replicon system reproduces a crucial part of the HCV replication cycle which is used as a system for simulating HCV infection. Bartenschlager's group produced bicistronic recombinant RNAs, so-called “replicons”, which carry the neomycin-phosphotransferase (NPT) gene as well as a version of the HCV genome where the sequences for the structural HCV proteins were deleted. After transfection of the subgenomic HCV RNA molecules into the human hepatoma cell line HuH-7, cells supporting efficient RNA-dependent RNA replication of the HCV replicons were selected based on co-amplification of the NPT gene and resulting resistance to the antibiotic G-418. Integration of coding information into the cellular genome was an exclusion criteria for functional replicons. Several lines were established from G-418 resistant clones with autonomously replicating HCV RNAs detectable by Northern Blotting.
Possible influences and/or dependencies of HCV's RNA-dependent RNA replication and nonstructural proteins on host cell transcription are accessible to analysis with the Clontech cDNA arrays used in the methods described herein. HuH-pcDNA3 cells are HuH7 cells resistant to G-418 by integration of a NPT gene-carrying plasmid (pcDNA3, Invitrogen) and serve as negative control. Three replicon lines were analyzed for changes in cellular RNA expression patterns compared to the control line: • HuH-9-13: cell line with persistant replicon IRES377/NS3-3′/wt, described in Science 1999, 285, 110-113, • HuH-5-15: cell line with persistant replicon IRES389/NS3-3′/wt, described in Science 1999, 285, 110-113, • HuH-11-7: cell line with persistant replicon IRES377/NS2-3′/wt, described in Science 1999, 285, 110-113.
(§1) Moreover, as model system for HCV replication there were utilized three replicon cell lines provided by Prof. R. Bartenschlager (University of Heidelberg, FRG). Cultures were treated for various periods of time with all bans retinoic acid (RA) for comparative purposes and the other agents selenium, selenium salts, Vitamin D3 and retinoids, like 9-cis retinoic acid, C1-C10 alkyl esters of 9-cis retinoic acid, C1-C10 alkyl amides of 9-cis retinoic add, N-(4-hydroxyphenyl)retinamide (4-HPR) and 6-[3-(1-adamantyl)+hydroxyphenyl]-2-naphthalene carboxylic acid (CD437; AHPN) (obtained from Sigma). Levels of expression of GI-GPx was measured on protein level by Western Blotting using antibodies provided by Prof. Brigelius-Flohe (University of Potsdam, FRG) and on RNA level by Northern blotting using GI-GPx-specific oligonucleotides as probes. Levels of HCV RNA were investigated by Northern Blotting using a DNA oligonucleotide complementary to the neomycin phosphotansferase gene as probe. Concentration of the viral protein NS5a was determined by Western Blotting with an NS5a-specific antibody (Biogenesis, UK).

GI-GPx = GI-GPx expression in replicon cells (Western / Northern blotting); type: cell-based, human
Protocol: as §1

PKR mRNA = PKR mRNA levels by Northern blotting (interferon response); type: cell-based, human
Description: In the course of retinoic acid studies it was investigated whether the RA-effect may also be mediated by activating an interferon response. A typical interferon-inducible gene codes for the double-stranded RNA-dependent protein kinase (PKR).

interferon receptors = experiment: Expression of interferon receptors in replicon cells by western Blotting; type: cell-based, human
replicon cells = experiment: Cytotoxic effects on replicon cells
RAR = experiment: Ligands for nuclear receptors: effector concentration; type: biochemical; settings: read-out: EC50 (effector concentration, concentration showing 50% effect)
[2] = replicon cells, 1 μM, three days
[3] = 1 μM, seven days, depending on the cell line
[4] = HCV replicon cell lines, FIG. 1 Panel A
[5] = six days, in the presence of selenium or a selenium salt like sodium selenite

CC1=C(/C=C/C(C)=C/C=C/C(C)=C/C(=O)Nc2ccc(O)cc2)C(C)(C)CCC1 [4-HPR, N-(4-hydroxyphenyl)retinamide] was tested, and the “Receptor(s)” value [1] was “RAR” and the “Effect on Replication” value (HCV replicon cell lines) was “++”.
CC1=C(/C=C/C(C)=C\C=C\C(C)=C\C(=O)O)C(C)(C)CCC1 [9-cis RA, 9-cis retinoic acid] was tested, and the “Effect on Replication” value (HCV replicon cell lines) was “+++”, the “reducing HCV load” value (HCV replicon cell lines) was “capable of reducing HCV load” and the “downregulate HCV RNA, compared with all trans retinoic acid alone” value (HCV replicon cell lines; first preliminary result) was “significantly better”.
With CC1=C(/C=C/C(C)=C/C=C/C(C)=C\C(=O)O)C(C)(C)CCC1 [13-cis RA, 13-cis retinoic acid] the “Effect on Replication” value (HCV replicon cell lines) was “+++”.
CC1(C)CCC(C)(C)c2cc(C(=O)Nc3ccc(C(=O)O)cc3)ccc21 [AM-580, (4-[5,6,7,8-tetrahydro-5,5,8,8-tetramethyl-2-naphtalenyl)carbox-amido]benzoic acid] was tested, and the “Receptor(s)” value [1] was “RARα/not RXR” and the “Effect on Replication” value (HCV replicon cell lines) was “++”.
With CC1=C(/C=C/C(C)=C/C=C/C(C)=C/C(=O)O)C(C)(C)CCC1 [ATRA, all trans retinoic acid] the “up-regulation of GI-GPx on RNA- and protein level” value (GI-GPx; 1 μM, seven days of incubation) was “three- to ten-fold”, the GI-GPx gene expression (GI-GPx; HCV replicon cell lines, FIG. 1 Panel B) was “up-regulation” and the “effect on GI-GPx expression” value (GI-GPx; [2]) was “hardly an effect”. The “upregulation of GI-GPx RNA and protein” value (GI-GPx; replicon cells, six days) was “upregulation”, the “transcription of PKR” value (PKR mRNA) was “did not induce” and the “PKR mRNA levels” value (PKR mRNA; mock-transfected HuH7 cells (pcDNA3) and replicon cell lines, ATRA 1 μM, IFN as control, FIG. 1 Panel C) was “no up-regulation”. The “interferon receptors on protein level” value (interferon receptors) was “no up-regulation”, the “Receptor(s)” value [1] was “RAR” and the “Effect on Replication” value (HCV replicon cell lines) was “+++”. For the same compound, the “expression of subgenomic HCV RNA downregulated” value (HCV replicon cell lines; [3]) was “two- to five-fold”, the “expression of viral protein NS5a downregulated” value (HCV replicon cell lines; [3]) was “two- to five-fold” and the “HCV RNA” value (HCV replicon cell lines; [4]) was “suppression”. The NS5a protein expression (HCV replicon cell lines; [4]) was “suppression”, the “HCV down-regulation by IFN alpha” value (HCV replicon cell lines; in the presence of RA, FIG. 2 center Panel) was “slightly enhanced” and the “effect on HCV expression” value (HCV replicon cell lines; [2]) was “hardly an effect”. For the same compound, the “reduction of HCV-NS5a protein” value (HCV replicon cell lines; [5]) was “two- to five-fold”, the “reduction of HCV-RNA” value (HCV replicon cell lines; [5]) was “two- to five-fold” and the toxic effects (replicon cells; [5]) was “absence of toxic effects”.
COC(C)(C)CCCC(C)C/C=C/C(C)=C/C(=O)O (stereo not drawn) [Methoprene acid, 11-methoxy-3,7,11-trimethyl-2E,4E-dodecadienoic acid] was tested, and the “Receptor(s)” value [1] was “RXR” and the “Effect on Replication” value (HCV replicon cell lines) was “−”.
With C/C(=C\c1ccc(C(=O)O)cc1)c1ccc2c(c1)C(C)(C)CCC2(C)C [TTNPB] the “Receptor(s)” value [1] was “RAR”, the EC50 (RAR) was […] and the “Effect on Replication” value (HCV replicon cell lines) was “+++”.
For C=C1CC[C@H](O)C/C1=C/C=C1\CCC[C@]2(C)[C@@H]([C@H](C)CCCC(C)C)CC[C@@H]12 [Vitamin D3], the “reducing HCV load” value (HCV replicon cell lines) was “capable of reducing HCV load”.
For O=[Se](O)O [sodium selenite], the Severe cytotoxic effects (replicon cells; substance alone) was “neither observed”.
